Laboratory results published in patent US20150105252A1, “SUBSTITUTED PYRAZOLES AS HERBICIDES” (E I DU PONT DE NEMOURS AND COMPANY, priority 2013, published 2015).

Tests used:
barnyardgrass [1] = assay: Test A preemergence; format: in vivo, Echinochloa crus-galli; settings: preemergence; for Barnyardgrass plant response rating (0 to 100 scale, 0 is no effect, 100 is complete control): visual injury approx. 10 days after treatment
Outline: (§1)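 Seeds were sown in a loam soil–sand blend and given a directed soil spray preemergence; postemergence plants at 2–10 cm, one- to two-leaf stage, were sprayed with compound in non-phytotoxic solvent with surfactant. After about 10 days in a greenhouse, injury was visually rated against untreated controls (0 = no effect, 100 = complete control).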

barnyardgrass [2] = assay: Test A postemergence; format: in vivo, Echinochloa crus-galli
Outline: as §1

pigweed = assay: Test A postemergence; format: in vivo, Amaranthus retroflexus
Outline: as §1

corn = assay: Test A postemergence; format: in vivo, Zea mays
Outline: as §1

rice = assay: Test B flood; format: in vivo, Oryza sativa; settings: 250 g ai/ha, visual rating on 0 to 100 scale (0 no effect, 100 complete control), 13 to 15 days
Outline: (§2)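 Two-leaf-stage plants, pots flooded (3 cm above soil) and treated through the water, which stayed at that depth. After 13–15 days in greenhouse conditions, visual assessment versus controls: 0 is no effect, 100 complete control, dash means no result.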

ducksalad = assay: Test B flood; format: in vivo, Heteranthera limosa; settings: 250 g ai/ha, visual rating on 0 to 100 scale (0 no effect, 100 complete control), 13 to 15 days
Outline: as §2

blackgrass = assay: Test C preemergence; format: in vivo, Alopecurus myosuroides; settings: preemergence; for Plant response rating, Blackgrass: 125 g ai/ha, scale 0 to 100, 0 = no effect, 100 = complete control
Outline: (§3)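 Visual rating, 0–100 scale (0 no effect, 100 complete control), vs untreated controls after 13–15 d greenhouse. Pre: seeds in loam/sand, treated at sowing. Post: plants in peat-based mix, 1- to 4-leaf (2–18 cm). Solvent + surfactant formulation, non-phytotoxic.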

foxtail, giant = assay: Test C preemergence; format: in vivo, Setaria faberii; settings: preemergence; for Plant response rating, Foxtail, Giant: 125 g ai/ha, scale 0 to 100, 0 = no effect, 100 = complete control
Outline: as §3

ragweed [3] = assay: Test C preemergence; format: in vivo, Ambrosia elation; settings: preemergence; for Plant response rating, Ragweed: 125 g ai/ha, scale 0 to 100, 0 = no effect, 100 = complete control
Outline: as §3

crabgrass, large = assay: Test C postemergence; format: in vivo, Digitaria sanguinalis; settings: for Plant response rating (scale of 0 to 100 where 0 is no effect and 100 is complete control), Crabgrass, Large: Postemergence, 31 g ai/ha, visually evaluated after 13 to 15 days; for Crabgrass, Large plant response rating / Plant response rating, Crabgrass, Large: postemergence; for Crabgrass, Large plant response rating: 62 g ai/ha, scale 0 to 100
Outline: as §3

ragweed [4] = assay: Test C postemergence; format: in vivo, Ambrosia elation; settings: for Plant response rating, Ragweed: postemergence
Outline: as §3

barnyardgrass [5] = assay: Test C postemergence; format: in vivo, Echinochloa crus-galli; settings: for Plant response rating (scale of 0 to 100 where 0 is no effect and 100 is complete control), Barnyardgrass: Postemergence, 31 g ai/ha, visually evaluated after 13 to 15 days; for Barnyardgrass plant response rating / Plant response rating, Barnyardgrass: postemergence; for Barnyardgrass plant response rating: 62 g ai/ha, scale 0 to 100
Outline: as §3

oat, wild = assay: Test C postemergence; format: in vivo, Avena fatua; settings: for Plant response rating (scale of 0 to 100 where 0 is no effect and 100 is complete control), Oat, Wild: Postemergence, 31 g ai/ha, visually evaluated after 13 to 15 days; for Oat, Wild plant response rating / Plant response rating, Oat, Wild: postemergence; for Oat, Wild plant response rating: 62 g ai/ha, scale 0 to 100
Outline: as §3

[6] = 500 g ai/ha, visual injury after approx. 10 days, 0 to 100 scale (0 no effect, 100 complete control)
[7] = Postemergence, 500 g ai/ha, 0 to 100 scale (0 no effect, 100 complete control)
[8] = postemergence, 125 g ai/ha, about 10 days, visual rating on 0 to 100 scale (0 no effect, 100 complete control)
[9] = 31 g ai/ha, visual rating, scale 0 to 100 (0 no effect, 100 complete control), 13 to 15 days
[10] = 62 g ai/ha, scale 0 to 100 (0 no effect, 100 complete control), 13 to 15 days
[11] = 250 g ai/ha, scale 0 to 100, 0 is no effect, 100 is complete control
[12] = 250 g ai/ha, scale 0 to 100 (0 no effect, 100 complete control)
[13] = 125 g ai/ha, scale 0 to 100, 0 no effect, 100 complete control
[14] = Postemergence, 125 g ai/ha, 0 to 100 scale, 0 no effect, 100 complete control

Row | Compound | Barnyardgrass plant response rating (barnyardgrass [1]; [6]) | Barnyardgrass plant response rating (barnyardgrass [2]; [7]) | Barnyardgrass plant response rating (barnyardgrass [2]; [8]) | Pigweed plant response rating (pigweed; [7]) | Corn plant response rating (corn; [7]) | Corn plant response rating (corn; [8]) | Plant response rating, Rice (rice) | Plant response rating, Ducksalad (ducksalad) | Blackgrass plant response rating (blackgrass; [9]) | Blackgrass plant response rating (blackgrass; [10]) | Plant response rating, Blackgrass (blackgrass; 13 to 15 days) | Blackgrass plant response rating (blackgrass; [11]) | Foxtail, Giant plant response rating (foxtail, giant; [9]) | Foxtail, Giant plant response rating (foxtail, giant; [10]) | Plant response rating, Foxtail, Giant (foxtail, giant; 13 to 15 days) | Foxtail, Giant plant response rating (foxtail, giant; [11]) | Ragweed plant response rating (ragweed [3]; [9]) | Ragweed plant response rating (ragweed [3]; [10]) | Plant response rating, Ragweed (ragweed [3]; 13 to 15 days) | Ragweed plant response rating (ragweed [3]; [11]) | also measured
1 | CCc1cc(C(=O)NC(C)C)nn1Cc1ccnc(C(F)(F)F)c1 [Compound 139] | 100 | 90 | 80 | 100 | 90 | 50 | 50 | 100 | 85 | 90 | 90 | 90 | 90 | 100 | 100 | 100 | 15 | 75 | 90 | 95 | Barnyardgrass plant response rating (barnyardgrass [1]; 125 g ai/ha, visual injury, 0 to 100 scale, approx. 10 days): 90; Pigweed plant response rating (pigweed; [8]): 90; Plant response rating (scale of 0 to 100 where 0 is no effect and 100 is complete control), Crabgrass, Large (crabgrass, large): 10; Crabgrass, Large plant response rating (crabgrass, large): 10; Plant response rating, Crabgrass, Large (crabgrass, large; [12]): 20; Plant response rating, Crabgrass, Large (crabgrass, large; [13]): 15; Plant response rating (scale of 0 to 100 where 0 is no effect and 100 is complete control), Ragweed (ragweed [4]; Postemergence, 31 g ai/ha, visually evaluated after 13 to 15 days): 35; Plant response rating, Ragweed (ragweed [4]; [12]): 25; Plant response rating, Ragweed (ragweed [4]; [13]): 35; Plant response rating (scale of 0 to 100 where 0 is no effect and 100 is complete control), Barnyardgrass (barnyardgrass [5]): 10; Barnyardgrass plant response rating (barnyardgrass [5]): 10; Plant response rating, Barnyardgrass (barnyardgrass [5]; [12]): 20; Plant response rating, Barnyardgrass (barnyardgrass [5]; [13]): 10; Plant response rating (scale of 0 to 100 where 0 is no effect and 100 is complete control), Oat, Wild (oat, wild): 10; Oat, Wild plant response rating (oat, wild): 10; Plant response rating, Oat, Wild (oat, wild; [12]): 40; Plant response rating, Oat, Wild (oat, wild; [13]): 30
2 | CCCc1cc(C(=O)NOCC)nn1Cc1ccnc(C(F)(F)F)c1 [Compound 185] | 100 | 90 | 80 | 100 | 90 | 0 | 10 | 50 | 5 | 10 | 90 | 80 | 60 | 90 | 98 | 100 | 5 | 75 | 95 | 100 | Barnyardgrass plant response rating (0 to 100 scale, 0 is no effect, 100 is complete control) (barnyardgrass [1]; 125 g ai/ha): 80; Pigweed plant response rating (pigweed; [14]): 60; Plant response rating (scale of 0 to 100 where 0 is no effect and 100 is complete control), Crabgrass, Large (crabgrass, large): 5; Crabgrass, Large plant response rating (crabgrass, large): 5; Plant response rating, Crabgrass, Large (crabgrass, large; [12]): 45; Plant response rating, Crabgrass, Large (crabgrass, large; [13]): 5; Plant response rating, Ragweed (ragweed [4]; [12]): 30; Plant response rating, Ragweed (ragweed [4]; [13]): 40; Plant response rating (scale of 0 to 100 where 0 is no effect and 100 is complete control), Barnyardgrass (barnyardgrass [5]): 0; Barnyardgrass plant response rating (barnyardgrass [5]): 0; Plant response rating, Barnyardgrass (barnyardgrass [5]; [12]): 20; Plant response rating, Barnyardgrass (barnyardgrass [5]; [13]): 5; Plant response rating (scale of 0 to 100 where 0 is no effect and 100 is complete control), Oat, Wild (oat, wild): 5; Oat, Wild plant response rating (oat, wild): 10; Plant response rating, Oat, Wild (oat, wild; [12]): 15; Plant response rating, Oat, Wild (oat, wild; [13]): 10
3 | CCOc1cc(C(=O)NC(C)C)nn1Cc1ccnc(C(F)(F)F)c1 [Compound 188] | 100 | 90 | 90 | 100 | 100 | 90 | 60 | 90 | 90 | 90 | 90 | 90 | 100 | 100 | 100 | 100 | 75 | 95 | 100 | 98 | Barnyardgrass plant response rating (0 to 100 scale, 0 is no effect, 100 is complete control) (barnyardgrass [1]; 125 g ai/ha): 100; Pigweed plant response rating (pigweed; [14]): 100; Plant response rating (scale of 0 to 100 where 0 is no effect and 100 is complete control), Crabgrass, Large (crabgrass, large): 5; Crabgrass, Large plant response rating (crabgrass, large): 55; Plant response rating, Crabgrass, Large (crabgrass, large; [12]): 95; Plant response rating, Crabgrass, Large (crabgrass, large; [13]): 70; Plant response rating, Ragweed (ragweed [4]; [12]): 90; Plant response rating, Ragweed (ragweed [4]; [13]): 85; Plant response rating (scale of 0 to 100 where 0 is no effect and 100 is complete control), Barnyardgrass (barnyardgrass [5]): 5; Barnyardgrass plant response rating (barnyardgrass [5]): 15; Plant response rating, Barnyardgrass (barnyardgrass [5]; [12]): 65; Plant response rating, Barnyardgrass (barnyardgrass [5]; [13]): 30; Plant response rating (scale of 0 to 100 where 0 is no effect and 100 is complete control), Oat, Wild (oat, wild): 15; Oat, Wild plant response rating (oat, wild): 10; Plant response rating, Oat, Wild (oat, wild; [12]): 85; Plant response rating, Oat, Wild (oat, wild; [13]): 60
4 | CCOc1cc(C(=O)NC2CC2)nn1Cc1ccnc(C(F)(F)F)c1 [Compound 189] | 100 | 90 | 90 | 100 | 100 | 80 | 45 | 85 | 90 | 90 | 90 | 90 | 100 | 100 | 100 | 100 | 85 | 98 | 100 | 98 | Barnyardgrass plant response rating (0 to 100 scale, 0 is no effect, 100 is complete control) (barnyardgrass [1]; 125 g ai/ha): 90; Pigweed plant response rating (pigweed; [14]): 80; Plant response rating (scale of 0 to 100 where 0 is no effect and 100 is complete control), Crabgrass, Large (crabgrass, large): 5; Crabgrass, Large plant response rating (crabgrass, large): 5; Plant response rating, Crabgrass, Large (crabgrass, large; [12]): 90; Plant response rating, Crabgrass, Large (crabgrass, large; [13]): 65; Plant response rating, Ragweed (ragweed [4]; [12]): 90; Plant response rating, Ragweed (ragweed [4]; [13]): 75; Plant response rating (scale of 0 to 100 where 0 is no effect and 100 is complete control), Barnyardgrass (barnyardgrass [5]): 5; Barnyardgrass plant response rating (barnyardgrass [5]): 5; Plant response rating, Barnyardgrass (barnyardgrass [5]; [12]): 55; Plant response rating, Barnyardgrass (barnyardgrass [5]; [13]): 20; Plant response rating (scale of 0 to 100 where 0 is no effect and 100 is complete control), Oat, Wild (oat, wild): 10; Oat, Wild plant response rating (oat, wild): 15; Plant response rating, Oat, Wild (oat, wild; [12]): 60; Plant response rating, Oat, Wild (oat, wild; [13]): 30
